Key:
[1] = system: C6 glioma cells; assay: Scratch wound healing assay (cell migration); assay type: cell-based, Rat; settings: 100 μg/mL, 1 h, NIR-808 10 min, 24 h after scraping
Method: Scratch wound healing assays of the PNPs, PINPs, and ICG (100 μg/mL) were studied in C6 cells as described previously. This was followed by imaging of the cells which migrated towards the cell-free zone in the scrape at 0 and 24 h, using a brightfield inverted microscope (IX71; Olympus Corp., Tokyo, Japan). The cell migration was analyzed by measuring the dimension of the gap distance using the Adobe Photoshop CC software. The details of the process being used are provided in the Supplementary Materials. […]
nanoparticle’s aqueous solution was monitored and recorded every single min by a digital […]
1.4.5. […]
1.4.6. Scratch Assay of PINPs Determined in C6 Glioma Cells […]
1.4.7. Localized Chemo-phototoxicity of PINPs Determined in C6 Cells
Next, we quantified the synergistic chemo-phototoxicity of PINPs (10 μg/mL) in comparison to other individual moieties [PNPs (chemotherapy) and ICG (phototherapy)] in C6 cells. […]
Following day cells were treated with different formulations for 30 min. […] Cells were incubated for another 24 h and were evaluated by standard MTT assay as described […]
Figure S1. Size distribution profile of self-assembled peptide nanostructures determined in a mixture of HFIP-water at a ratio of 1:19 v/v. […]

[2] = system: C6 cells; assay: Localized chemo-PTT/PDT toxicity, brightfield imaging; assay type: cell-based, Rat; settings: 100 μg/mL, 30 min
Method: The localized collaborative chemo-phototoxicity of PINPs, in contrast to PNPs, was studied and then visualized using C6 cells. In short, to assess the thermal ablation effect, C6 cells (50,000/well in 6-well dishes) were seeded and cultured in complete media and they were treated with different formulations (100 μg/mL, for 30 min). The used complete growth media containing the formulations was then swapped with new phenol-free media without FBS. For a combined chemo-phototoxicity analysis, the corresponding wells containing cells were exposed to a NIR-808 laser for ~10 min, incubated for an additional 30 min, and subsequently imaged under a brightfield microscope (Olympus BX53; Tokyo, Japan).

With CC1(C)C(/C=C/C=C/C=C/C=C2\N(CCCCS(=O)(=O)O)c3ccc4ccccc4c3C2(C)C)=[N+](CCCCS(=O)(=O)[O-])c2ccc3ccccc3c21 [ICG, indocyanine green] the wound closure [1] was ~ 100%, the “cell death (brightfield images) after NIR-808 exposure” value ([2]; NIR-808 ~10 min) was “no cell death” and the “cell death (brightfield images) in the dark / without NIR-808” value ([2]; no laser) was “no cell death”.

Source: paper PMC9863651, “Anti-Glioma Activity Achieved by Dual Blood–Brain Barrier/Glioma Targeting Naive Chimeric Peptides-Based Co-Assembled Nanophototheranostics” (Pharmaceutics, 2023)
